Laboratory results: patent publication US8536202B2, “Triazole-substituted anthranilamides as pesticides” (Bayer Cropscience AG, priority 2010, dated 2013)
Like-named read-outs stand apart in the source and are kept apart here.

Legend:
adult Musca domestica = assay: Musca domestica test (MUSCDO); assay type: in vivo; conditions: 48 h, read-out: kill in %
Method: (§1) Solvent: dimethyl sulphoxide
An appropriate preparation of active compound is prepared by mixing 10 mg of active compound with 0.5 ml of dimethyl sulphoxide and diluting the concentrate with water to the desired concentration. Vessels containing a sponge treated with the preparation of active compound at the desired concentration are populated with adult Musca domestica.
After 2 days, the kill in % is ascertained. Here, 100% means that all of the flies have been killed; 0% means that no flies have been killed.

[1] = tested on: green peach aphid (Myzus persicae); assay: Myzus test (MYZUPE spray treatment), Use Example 4; assay type: in vivo; conditions: 144 h, read-out: activity in %
Summary of the method: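 Compound was formulated in acetone/dimethylformamide with alkylaryl polyglycol ether emulsifier and diluted in emulsifier-containing water. It was sprayed onto Chinese cabbage leaf discs infested with all stages of Myzus persicae. Mortality (%) was scored after 6 days, where 100% means all aphids killed.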

Boophilus microplus = Boophilus microplus test (BOOPMI injection); assay type: in vivo; conditions: Rhipicephalus microplus, 168 h, 20 μg/animal, after 7 days, read-out: activity in % (no fertile eggs laid)
Method: as §1
An appropriate preparation of active compound is prepared by mixing 10 mg of active compound with 0.5 ml of solvent and diluting the concentrate with solvent to the desired concentration. The solution of active compound is injected into the abdomen (Boophilus microplus), and the animals are transferred to dishes and kept in a climatized room. Activity is assessed by deposition of fertile eggs.
After 7 days, the activity in % is assessed. Here, 100% means that none of the ticks has laid fertile eggs.

Lucilia cuprina larvae = assay: Lucilia cuprina test (LUCICU); assay type: in vivo; conditions: 48 h, read-out: kill in %
Method: as §1
An appropriate preparation of active compound is prepared by mixing 10 mg of active compound with 0.5 ml of dimethyl sulphoxide and diluting the concentrate with water to the desired concentration.
Vessels containing horse meat treated with the preparation of active compound at the desired concentration are populated with approximately 20 Lucilia cuprina larvae.
After 2 days, the kill in % is ascertained. Here, 100% means that all of the larvae have been killed; 0% means that no larvae have been killed.

[2] = tested on: caterpillars of the armyworm (Spodoptera frugiperda); assay: Spodoptera frugiperda test (SPODFR spray treatment); assay type: in vivo; conditions: 168 h, read-out: activity in %
Summary of the method: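 Percent caterpillar mortality read 7 days after infestation (0% none killed, 100% all killed). Treatment was a spray of the acetone/DMF/emulsifier formulation, water-diluted to test concentration, onto Zea mays leaf discs, allowed to dry before larvae were added.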

[3] = log P determination by HPLC on reversed-phase columns (EEC Directive 79/831 Annex V.A8); assay type: physicochemical; conditions: pH 2.7
Summary of the method: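 Calibration used unbranched alkan-2-ones of 3 to 16 carbons with known log P, values interpolated linearly from retention times between neighbouring standards. Acidic-range LC-MS run at pH 2.7, eluents aqueous and acetonitrile formic acid 0.1%, linear gradient 10% to 95% acetonitrile.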

[4] = tested on: larvae of the mustard beetle (Phaedon cochleariae); assay: Phaedon test (PHAECO spray treatment); assay type: in vivo; conditions: 168 h, read-out: activity in %
Summary of the method: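 Mortality of mustard beetle larvae, expressed as percent killed (100% all, 0% none), assessed 7 days after spraying. Spray liquor made from compound in acetone plus dimethylformamide with alkylaryl polyglycol ether, diluted in emulsifier-containing water to the desired concentration.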

[5] = tested on: two-spotted spider mite (Tetranychus urticae); assay: Tetranychus test, OP-resistant (TETRUR spray treatment); assay type: in vivo; conditions: 100 g/ha, after 6 days
Method: Solvents: 78.0 parts by weight of acetone • • 1.5 parts by weight of dimethylformamide
Emulsifier: 0.5 part by weight of alkylaryl polyglycol ether
An appropriate preparation of active compound is prepared by mixing 1 part by weight of active compound with the stated amounts of solvent and emulsifier and diluting the concentrate with emulsifier-containing water to the desired concentration. Leaf discs of French bean (Phaseolus vulgaris) infested by all stages of the two-spotted spider mite (Tetranychus urticae) are sprayed with a preparation of active compound at the desired concentration.
After 6 days, the activity in % is ascertained. Here, 100% means that all of the spider mites have been killed; 0% means that no spider mites have been killed.

[6] = HPLC on reversed-phase columns (C 18), EEC Directive 79/831 Annex V.A8, read-out: logP

Compound	pest or weed control at 100 ppm (adult Musca domestica)	pest or weed control at 100 g/ha ([1]; 100 g/ha, after 6 days)	pest or weed control at 0.02 mg (Boophilus microplus)	pest or weed control at 100 ppm (Lucilia cuprina larvae)	pest or weed control at 100 g/ha ([2]; 100 g/ha, after 7 days)	chromatographic logP [3]	pest or weed control at 100 g/ha ([4]; 100 g/ha, after 7 days)	activity in % [5]	pest or weed control at 100 g/ha [2]	chromatographic logP [3, 6]	pest or weed control at 100 g/ha [4]	pest or weed control at 100 g/ha [1]	pest or weed control at 100 ppm (adult Musca domestica; 100 ppm, after 2 days)	pest or weed control at 100 ppm (Lucilia cuprina larvae; 100 ppm, after 2 days)	chromatographic logP ([3]; reversed-phase C18 HPLC column, HPLC on reversed-phase columns (C 18), EEC Directive 79/831 Annex V.A8, read-out: logP)
Cc1cc(C#N)cc(C(=O)NC2(C3CC3)CC2)c1NC(=O)c1cc(Cn2ncc(C(F)(F)F)n2)nn1-c1ncccc1Cl [Example 281]	100%	100%	100%	100%	100%	3.37	100%								
Cc1cc(Cl)cc(C(=O)NC2CC2)c1NC(=O)c1cc(Cn2cc(C(F)(C(F)(F)F)C(F)(F)F)nn2)nn1-c1ncccc1Cl [Example 232]	100%	80%	100%	100%	100%	3.61	100%								
Cc1cc(I)cc(C(N)=O)c1NC(=O)c1cc(Cn2cc(C(F)(C(F)(F)F)C(F)(F)F)nn2)nn1-c1ncccc1Cl [Example 239]	100%	100%	100%	100%	100%	3.35	100%								
Cc1cc(Cl)cc(C(N)=O)c1NC(=O)c1cc(Cn2ncc(C(F)(F)F)n2)nn1-c1ncccc1Cl [Example 134]	100%	100%	100%	100%	100%	2.7	100%								
CNC(=O)c1cc(Cl)cc(Cl)c1NC(=O)c1cc(Cn2cc(C(F)(C(F)(F)F)C(F)(F)F)nn2)nn1-c1ncccc1Cl [Example 241]	80%	100%	100%	100%	100%	3.31	100%								
Cc1cc(C#N)cc(C(=O)NC(C)C)c1NC(=O)c1cc(Cn2ncc(C(F)(F)F)n2)nn1-c1ncccc1Cl [Example 128]	80%	100%	100%	100%	100%	3.1	100%								
Cc1cc(Cl)cc(C(=O)NC2(C3CC3)CC2)c1NC(=O)c1cc(Cn2ncc(C(F)(F)F)n2)nn1-c1ncccc1Cl [Example 282]	80%	80%	100%	100%	100%	3.78	100%								
CNC(=O)c1cc(C#N)cc(C)c1NC(=O)c1cc(Cn2ncc(C(C)(C)C)n2)nn1-c1ncccc1Cl [Example 39]						2.89	83%	90%							
Cc1cc(I)cc(C(=O)NC2CC2)c1NC(=O)c1cc(Cn2ncc(C(F)(F)C(F)(F)C(F)(F)F)n2)nn1-c1ncccc1Cl [Example 375]								90%	100%	4.23	100%				
Cc1cc(Cl)cc(C(N)=O)c1NC(=O)c1cc(Cn2cc(C(F)(C(F)(F)F)C(F)(F)F)nn2)nn1-c1ncccc1Cl [Example 231]	80%	100%	100%	100%	100%	3.16	100%								
CSC[C@H](C)NC(=O)c1cc(I)cc(C)c1NC(=O)c1cc(Cn2cc(C(F)(F)C(F)(F)C(F)(F)F)nn2)nn1-c1ncccc1Cl [Example 321]								90%	100%	4.27	100%	100%			
Cc1cc(C#N)cc(C(=O)NC(C)C2CC2)c1NC(=O)c1cc(Cn2cc(C(F)(C(F)(F)F)C(F)(F)F)nn2)nn1-c1ncccc1Cl (stereo not drawn) [Example 218]			100%		100%		100%						85%	100%	3.73
Cc1cc(C#N)cc(C(=O)NC(C)(C)C)c1NC(=O)c1cc(Cn2ncc(C(F)(F)F)n2)nn1-c1ncccc1Cl [Example 129]	80%	100%	100%	100%	100%	3.46	100%								
CNC(=O)c1cc(C#N)cc(C)c1NC(=O)c1cc(Cn2ncc(C(F)(F)F)n2)nn1-c1ncccc1Cl [Example 124]	80%	100%	100%	100%	100%	2.68	100%								
CNC(=O)c1cc(Br)cc(C)c1NC(=O)c1cc(Cn2ncc(C(F)(F)F)n2)nn1-c1ncccc1Cl [Example 172]	80%	100%	100%	100%	100%	3.1	100%								
Cc1cc(Cl)cc(C(N)=O)c1NC(=O)c1cc(Cn2ncc(C(F)(C(F)(F)F)C(F)(F)F)n2)nn1-c1ncccc1Cl [Example 263]	100%	80%	100%	100%	100%	3.48	100%								
